Assay results from patent US11690813B2, “Aminothiol reduction of ischemia-reperfusion-induced cell death” (OBVIA PHARMACEUTICALS LTD, priority 2018, dated 2023).
Values joined by “and” are separate entries in the source; they are usually repeats but may differ in a detail not shown here. Equal entries are not always repeated. Where two headings read alike, the source gives them in different places.

Tests used:
[1] = in vivo
pUC19 plasmid DNA [2] = assay: x-irradiation ROS-induced nicking of pUC19 plasmid DNA; format: biochemical
[3] = rats; cited from earlier work
irradiated skin = format: in vivo, rat
[4] = test system: Caspase 3 and 7 activity in kidney homogenate supernates; conditions: mouse, in vivo, ip
[5] = mouse, in vivo
pUC19 plasmid DNA [6] = format: biochemical
[7] = test system: serum blood urea nitrogen (BUN); conditions: mouse, in vivo, ip
cardiac muscle = conditions: mouse, in vivo, ip
[8] = test system: primary neonate cardiac myocytes; format: cell-based, mice
human blood lymphocytes = format: cell-based
[9] = set-up: species or system mice; conditions: mouse, in vivo
[10] = rat, in vivo
[11] = mouse, in vivo; remark: listed apart in the source
physchem = conditions: buffer, pH 7.2
[12] = humans; cited from earlier work
[13] = added 15 min before 90 Gy x-irradiation over 30 min

CN(C)C(=O)C(CCN1CCC(O)(c2ccc(Cl)cc2)CC1)(c1ccccc1)c1ccccc1 [loperamide]
retching and emesis responses [1]: strong retch and emesis responses

NCCCNCCS [WR-1065, reference compound]
suppression of ROS-induced damage to plasmid DNA (pUC19 plasmid DNA [2]; [13]): dose-dependent suppression
hypotension side effects [3]: hypotension side effects

NCC(CN)CS [PrC-211]
Ionizing Radiation-ROS-Induced Dermatitis (% Clear Skin) (irradiated skin; rat, in vivo): 55 % Clear Skin and 100 % Clear Skin
Ionizing Radiation-ROS-Induced Dermatitis (% Clear Skin) (irradiated skin; rat, in vivo, ip): 87 % Clear Skin
reduction in level of kidney caspase at 0.24 MTD [4]: highly significant reductions
IP maximum tolerated dose (MTD) [5]: 500 ug/gm body weight

CNCC(CS)CNC [PrC-210]
suppression of ROS-induced damage to plasmid DNA (pUC19 plasmid DNA [2]): dose-dependent suppression
suppression of pUC19 DNA damage (pUC19 plasmid DNA [2]): 90%
suppression of .OH-induced ROS DNA damage (pUC19 plasmid DNA [6]): complete suppression
reduction in serum blood urea nitrogen (BUN) level [7]: like reduction
reduction in percentage of total cardiac muscle stained as dead-tissue (cardiac muscle): 36%
H2O2-induced cell death eliminated [8]: ~80%
suppression of γ-H2AX foci formation (human blood lymphocytes): highly significant
Ionizing Radiation-ROS-Induced Dermatitis (% Clear Skin) (irradiated skin; rat, in vivo): 100 % Clear Skin
Ionizing Radiation-ROS-Induced Dermatitis (% Clear Skin) (irradiated skin; rat, in vivo, ip): 100 % Clear Skin
suppression of radiation-induced death [9]: complete suppression
survival against otherwise 100% lethal dose of radiation [9]: 100%
reduction in level of kidney caspase [4]: 84%
reduction in level of kidney caspase at 0.24 MTD [4]: highly significant reductions
reduction in level of kidney caspase over dose range [4]: dose-dependent reduction
retching and emesis responses ([1]; ferret): none of the 10 ferrets
blood pressure response to challenge dose of IP epinephrine after drug [10]: robust increase in blood pressure
effect on blood pressure ([10]; ip): no reduction in blood pressure
PrC-210 thiol blood concentration [11]: 3 mM
plasma/blood concentrations of PrC-210 thiol associated with protection [11]: 1 to 3 mM
half-life of the thiol (buffer, pH 7.2): 3.5 h
conversion to disulfide form (pH 6): no discernible conversion
IP maximum tolerated dose (MTD) [5]: 504 ug/gm body weight
half-life (physchem): 3.5 h

NCCS [cysteamine, reference compound]
suppression of ROS-induced damage to plasmid DNA (pUC19 plasmid DNA [2]; [13]): dose-dependent suppression

NCCCNCCSP(=O)(O)O [Amifostine, amifostine]
Ionizing Radiation-ROS-Induced Dermatitis (% Clear Skin) (irradiated skin; Topical 100 mM, day 13): 0 % Clear Skin
retching and emesis responses [1]: significant bouts of both retching and emesis
blood pressure response to challenge dose of IP epinephrine after drug [10]: no discernible effect upon blood pressure
effect on blood pressure ([10]; ip): immediate and irreversible drop in blood pressure
ocular toxicity associated with chronic hypotension ([10]; ip): discernible ocular phenotype/toxicity
hypotension/fainting side effects [12]: hypotension/fainting side effects
nausea/emesis side effects [12]: severe nausea/emesis side effects
